Inconclusive results and toxic doses are left out. Rule for the calls: active = survival T/C of 150% or more; inactive = T/C below 125% in these data.
Test system: CD2F1 mice, L1210 leukemia ip, survival T/C
Assay: NCI In Vivo Anticancer Drug Screen. Data for tumor model L1210 Leukemia (intraperitoneal) in CD2F1 (CDF1) mice
Conditions: higher = longer survival
Method: The antitumor activity of compounds was measured in mice bearing transplantable tumors. Survival or tumor size were measured and the results are expressed as the measurement made in the treated group (T) divided by the measurement made in the vehicle treated control group (C). The tumor model used in this assay is L1210 Leukemia (intraperitoneal) in CD2F1 (CDF1) mice

[1] = endpoint: mean survival time, dose: 100.0 mg/kg/injection, schedule: Q04DX003 (ip), vehicle: saline with Tween-80
[2] = endpoint: mean survival time, dose: 200.0 mg/kg/injection, schedule: Q04DX003 (ip), vehicle: saline with Tween-80
[3] = endpoint: mean survival time, dose: 400.0 mg/kg/injection, schedule: Q04DX003 (ip), vehicle: saline with Tween-80

Measured: T/C

CCCCCCCCCCCCCCCCOc1ccccc1CNc1cccc(S(=O)(=O)F)c1
inactive: endpoint: mean survival time, dose: 100.0 mg/kg/injection, schedule: Q01DX009 (ip), vehicle: saline with Tween-80 94 % of control | [1] 95 % of control | endpoint: mean survival time, dose: 200.0 mg/kg/injection, schedule: Q01DX009 (ip), vehicle: saline with Tween-80 91 % of control | [2] 94 % of control | endpoint: mean survival time, dose: 400.0 mg/kg/injection, schedule: Q01DX009 (ip), vehicle: saline with Tween-80 87 % of control | [3] 100 % of control

CN(C)c1ccc(-c2nnc(-c3ccc(N(C)C)cc3)nn2)cc1
inactive: [1] 93 % of control | [2] 92 % of control | [3] 95 % of control

CC(=O)NC(CCC(=O)O)C(=O)O.[NH-]C1CCCCC1[NH-].[Pt+2] (stereo unspecified)
inactive: endpoint: median survival time, dose: 6.25 mg/kg/injection, schedule: Q04DX003 (ip), vehicle: saline 97 % of control | endpoint: median survival time, dose: 12.5 mg/kg/injection, schedule: Q04DX003 (ip), vehicle: saline 110 % of control | endpoint: median survival time, dose: 25.0 mg/kg/injection, schedule: Q04DX003 (ip), vehicle: saline 102 % of control | endpoint: median survival time, dose: 50.0 mg/kg/injection, schedule: Q04DX003 (ip), vehicle: saline 97 % of control | endpoint: median survival time, dose: 100.0 mg/kg/injection, schedule: Q04DX003 (ip), vehicle: saline 112 % of control

CC1(C)Oc2[nH]c(=O)n(-c3ccc(Cl)cc3)c(=O)c2C1c1ccc(Cl)cc1 (stereo unspecified)
inactive: endpoint: mean survival time, dose: 100.0 mg/kg/injection, schedule: Q04DX002 (ip), vehicle: saline with Tween-80 102 % of control | endpoint: mean survival time, dose: 200.0 mg/kg/injection, schedule: Q04DX002 (ip), vehicle: saline with Tween-80 105 % of control | endpoint: mean survival time, dose: 400.0 mg/kg/injection, schedule: Q04DX002 (ip), vehicle: saline with Tween-80 109 % of control

O=S(=O)(c1ccccc1)c1cccs1
inactive: endpoint: mean survival time, dose: 50.0 mg/kg/injection, schedule: Q04DX003 (ip), vehicle: saline 93 % of control | endpoint: mean survival time, dose: 100.0 mg/kg/injection, schedule: Q01DX001 (ip), vehicle: saline 110 % of control | endpoint: mean survival time, dose: 100.0 mg/kg/injection, schedule: Q04DX003 (ip), vehicle: saline 98 % of control | endpoint: mean survival time, dose: 200.0 mg/kg/injection, schedule: Q01DX001 (ip), vehicle: saline 112 % of control | endpoint: mean survival time, dose: 200.0 mg/kg/injection, schedule: Q04DX003 (ip), vehicle: saline 95 % of control | endpoint: mean survival time, dose: 400.0 mg/kg/injection, schedule: Q01DX001 (ip), vehicle: saline 112 % of control

CC(=O)CC(=O)OCc1ccccc1
inactive: [1] 100 % of control | [2] 95 % of control | [3] 103 % of control

[NH-]S(=O)(=O)O.[NH-]S(=O)(=O)O.[NH2-].[NH2-].[Pt+4]
inactive: endpoint: mean survival time, dose: 10.0 mg/kg/injection, schedule: Q04DX003 (ip), vehicle: saline with Tween-80 95 % of control | endpoint: mean survival time, dose: 20.0 mg/kg/injection, schedule: Q04DX003 (ip), vehicle: saline with Tween-80 97 % of control | endpoint: mean survival time, dose: 40.0 mg/kg/injection, schedule: Q04DX003 (ip), vehicle: saline with Tween-80 97 % of control

CCO/C=C1\SC(=S)N(C)C1=O
inactive: endpoint: mean survival time, dose: 15.0 mg/kg/injection, schedule: Q01DX009 (ip), vehicle: saline with Tween-80 90 % of control | endpoint: mean survival time, dose: 30.0 mg/kg/injection, schedule: Q01DX009 (ip), vehicle: saline with Tween-80 87 % of control | endpoint: mean survival time, dose: 60.0 mg/kg/injection, schedule: Q01DX009 (ip), vehicle: saline with Tween-80 98 % of control

C/C(=N\Nc1nc2ccccc2s1)c1ccc2c(c1)Sc1ccccc1O2
inactive: endpoint: mean survival time, dose: 37.5 mg/kg/injection, schedule: Q01DX009 (ip), vehicle: saline 92 % of control | endpoint: mean survival time, dose: 75.0 mg/kg/injection, schedule: Q01DX009 (ip), vehicle: saline 95 % of control | endpoint: mean survival time, dose: 150.0 mg/kg/injection, schedule: Q01DX009 (ip), vehicle: saline 98 % of control

CC1CC(C)(C)N=C(Cc2ccccc2)O1 (stereo unspecified)
inactive: endpoint: mean survival time, dose: 100.0 mg/kg/injection, schedule: Q01DX001 (ip), vehicle: saline with Tween-80 101 % of control | endpoint: mean survival time, dose: 200.0 mg/kg/injection, schedule: Q01DX001 (ip), vehicle: saline with Tween-80 93 % of control | endpoint: mean survival time, dose: 400.0 mg/kg/injection, schedule: Q01DX001 (ip), vehicle: saline with Tween-80 96 % of control

c1ccc(C(c2ccccc2)C(c2ccccc2)c2ccccc2)cc1
inactive: endpoint: mean survival time, dose: 18.7 mg/kg/injection, schedule: Q01DX009 (ip), vehicle: saline with Tween-80 89 % of control | endpoint: mean survival time, dose: 37.5 mg/kg/injection, schedule: Q01DX009 (ip), vehicle: saline with Tween-80 89 % of control

CCOC(=O)CCN(CC)CC
inactive: endpoint: mean survival time, dose: 100.0 mg/kg/injection, schedule: Q01DX009 (ip), vehicle: saline 106 % of control | endpoint: mean survival time, dose: 200.0 mg/kg/injection, schedule: Q01DX009 (ip), vehicle: saline 97 % of control | endpoint: mean survival time, dose: 400.0 mg/kg/injection, schedule: Q01DX009 (ip), vehicle: saline 97 % of control

COc1ccc(Nc2ccccc2Cl)c(C(=O)O)c1
inactive: [1] 98 % of control | [2] 102 % of control | [3] 102 % of control
